In publication PMC10541198, “Specific quinone reductase 2 inhibitors reduce metabolic burden and reverse Alzheimer’s disease phenotype in mice” (The Journal of Clinical Investigation, 2023):
Values joined by “and” are separate entries in the source; they are usually repeats but may differ in a detail not shown here. Equal values may be shown once.

Columns and labels:
[1] = system: 5xFAD mice; experiment: Nesting in 5xFAD mice; assay type: in vivo, mouse; design: key to Sup. Fig. 5-2J, nesting: nesting score on a scale of 1 to 5
Protocol: Each home cage was given six identical portions of cotton wool tubes and 24 h later the nest made was photographed from above. The images were gi ven the names of the respective cages, whi ch were coded […]
(see ‘Blinding Measures for Animal Experiments’ section), and were analyzed by an experimenter that was blind to the conditions, groups and cage codes. […]
Analysis of the images was done blind, by an experimenter unaware of the experimental conditions or details, using Imaris (Bitplane) software. Surface reconstruction module was used to extract the data as volumes and / or si gnal intensities of the used markers (4-HNE, phospho- t au, amyloid β and Iba 1) .

[2] = system: 5xFAD mice; experiment: Delay fear conditioning in 5xFAD mice, YB-537 in drinking water; assay type: in vivo, mouse; design: Figure 8A, delay fear conditioning: unit not given here; conditions: for freezing to conditioned context (individual mice) / freezing to conditioned cue (individual mice): in % (unit assumed); for Figure 8A, delay fear conditioning: individual animals
Protocol: We next aimed to test the effect of QR2 inhibition in AD model mice using YB-537, taking advantage of its extremely high specificity, solubility, and lack of toxicity. First, we determined YB-537 pharmacokinetics (PK) and oral bioavailability and assessed any acute observable toxicity in mice. […] We therefore opted to chronically deliver YB-537 to AD-model mice via their drinking water, so they may freely ingest the inhibitor at 50 mg/kg, with minimal intervention or trauma, for 1 month. We chose 9-month-old 5xFAD ([27]) male and female mice in double-blind experiments, so that well-progressed symptoms and pathologies would be present, to mimic clinically relevant cases in human patients ([35]), as has been previously described in this mouse model. Other than an improvement in nest quality ([36]) over time seen in animals receiving YB-537 (starting at age 8 months and ending at age 9 months), no changes to general physical parameters or wellbeing were observed over the 1 month of YB-537 ingestion (Supplemental Figure 6, A–J). Animals received the treatment for a week, and, on week 2, behavioral experiments commenced, including Morris water maze (MWM) and novel object recognition (NOR). These were carried out in parallel, with half of the animals (including both sexes and treatments) undergoing 1 of the paradigms in week 2, and the other in week 3. […] Since learning in this paradigm was slow, and performance was poor even following 6 days of training (using 4 learning trials a day), a test day was not carried out and instead only the learning rate was measured. […] Finally, during week 4, all the mice underwent DFC.
Since 1 month of chronic YB-537 ingestion rescued cognitive and pathological phenotypes more efficiently in female compared with male 5xFAD mice, we hypothesized that males may require a longer dosing regimen than females in order achieve a similar therapeutic effect. We therefore ran an additional experiment where we treated 5-month-old male 5xFAD mice with 50 mg/kg of YB-537 in drinking water for 4 months (starting at the age of 5 months, and ending at the age of 9 months, similar to the experiment described above), and compared cognitive performance to male 5xFAD and WT control mice of the same age not being treated with YB-537, using DFC in double-blind experiments.
DFC was done as previously described ([7]). Briefly, mice were given 2 minutes to explore the conditioning chambers, during which baseline freezing was measured. Then, a 20 second, 4 kHz, 80 dB tone was given, coterminating with the start of a 2 second, 0.5 mA foot-shock. This was repeated twice more in 1 minute intervals. Following the third and last bout, 1 minute was given before the animals were removed from the chambers. The next day, the animals were returned to the room under the same conditions and were placed back into the chambers, and freezing to the context was measured over the course of 5 minutes. The next day, the mice were brought to unfamiliar conditioning rooms and chambers. In this unfamiliar context, the protocol from the first day was repeated, except without the foot shocks. Freezing for the cue was recorded, starting from the sounding of the first tone. All measurements were taken with a Sentec stc-tb33usb-at camera, and analysis was done with Freeze Frame software (Actimetrics). […]
only, and kept there for 2 min. They were then placed inside a Habitest Operant Cage, within a Habitest Isolation Cubicle (Coulbourn), on a modular shock floor made of 16 m et al grids, connected to Precision Animal Shockers (Coulbourn) with illumination inside the cage coming from a 20 W bulb. Themice were given 2 min to explore, during which baseline freezing was measured. Then, a 20 s, 4 kHz, 80 dB tone was given, co- terminating with the start of a 2 s, 0.5 mA foot-shock, which was repeated a further two times, each having 1 min interval. Following the third, and last of these bouts, 1 min was given prior to the animals being removed from the chambers. […]

Compound: Cc1ccc(-c2cn3cccc(C)c3n2)cc1S(=O)(=O)N1CCNCC1 [YB-537]
- Nest quality ([1]; 5xFAD 1 month, regardless of sex (Pearson r)): significantly correlated to time under treatment
- Sup. Fig. 5-2J, nesting ([1]; Females, Day 0): 2 and 3
- Sup. Fig. 5-2J, nesting ([1]; Females, Day 7): 3 and 4
- Sup. Fig. 5-2J, nesting ([1]; Females, Day 14): 4
- Sup. Fig. 5-2J, nesting ([1]; Females, Day 21): 5 and 4
- Sup. Fig. 5-2J, nesting ([1]; Males + Females, Day 0): 3 and 2
- Sup. Fig. 5-2J, nesting ([1]; Males + Females, Day 7): 4 and 3
- Sup. Fig. 5-2J, nesting ([1]; Males + Females, Day 14): 4 and 3
- Sup. Fig. 5-2J, nesting ([1]; Males + Females, Day 21): 5 and 4
- Sup. Fig. 5-2J, nesting ([1]; Males, Day 0): 2 and 3
- Sup. Fig. 5-2J, nesting ([1]; Males, Day 7): 3 and 4
- Sup. Fig. 5-2J, nesting ([1]; Males, Day 14): 4 and 3
- Sup. Fig. 5-2J, nesting ([1]; Males, Day 21): 4 and 5
- freezing to conditioned context (individual mice) ([2]; 5xFAD 1 month, both sexes): 26.3 and 36.9 and 45.3 and 29.6 and 49.0 and 37.4 and 41.6 and 45.9 and 41.9 and 40.7 and 24.2 and 16.0 and 23.6 and 22.5 and 44.6 and 33.3
- freezing to conditioned cue (individual mice) ([2]; 5xFAD 1 month, both sexes): 15.0 and 17.0 and 24.7 and 22.5 and 22.1 and 14.0 and 31.4 and 12.7 and 18.5 and 20.4 and 8.8 and 16.5 and 7.1 and 13.0 and 5.4 and 14.5
- freezing to conditioned context (individual mice) ([2]; 5xFAD 1 month, females): 26.3 and 36.9 and 16.0 and 23.6 and 22.5 and 44.6 and 33.3
- freezing to conditioned cue (individual mice) ([2]; 5xFAD 1 month, females): 15.0 and 17.0 and 16.5 and 7.1 and 13.0 and 5.4 and 14.5
- freezing to conditioned context (individual mice) ([2]; 5xFAD 1 month, males): 45.9 and 41.9 and 40.7 and 24.2 and 45.3 and 29.6 and 49.0 and 37.4 and 41.6
- freezing to conditioned cue (individual mice) ([2]; 5xFAD 1 month, males): 12.7 and 18.5 and 20.4 and 8.8 and 24.7 and 22.5 and 22.1 and 14.0 and 31.4
- Figure 8A, delay fear conditioning ([2]; Baseline): 11.3 and 26.4 and 19.1 and 15.1 and 10.9 and 6.4 and 3.1 and 7.6 and 8.2
- Figure 8A, delay fear conditioning ([2]; CS/US 1): 31.6 and 45.2 and 36.2 and 37.7 and 37.5 and 20.1 and 19.4 and 47.6 and 48.9
- Figure 8A, delay fear conditioning ([2]; CS/US 2): 48.3 and 58.0 and 52.7 and 47.1 and 45.6 and 18.2 and 23.2 and 57.0 and 60.3
- Figure 8A, delay fear conditioning ([2]; CS/US 3): 62.5 and 61.5 and 55.2 and 55.7 and 52.0 and 17.2 and 31.2 and 65.3 and 57.9
- learning during delay-fear conditioning ([2]; male 5xFAD, 50 mg/kg in drinking water 4 months): normal learning
- freezing to conditioned context (individual mice) ([2]; male 5xFAD, 4 months): 24.6 and 26.8 and 50.3 and 22.2 and 32.3 and 63.4 and 63.3 and 75.1 and 38.8
- freezing to conditioned cue (individual mice) ([2]; male 5xFAD, 4 months): 44.3 and 66.5 and 54.4 and 28.0 and 38.6 and 64.3 and 47.4 and 65.9 and 58.0
- learning during delay fear conditioning ([2]; male and female 5xFAD, 1 month in drinking water): no difference observed across groups
